Tests used:
Experiment in all cases: microbe, parasite or virus in culture
A. baumannii ATCC 19606 = conditions: Acinetobacter baumannii, n = 2
In short: (§1)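 MH broth with or without Tween received a 40-fold dilution of each culture, held at 37°C for 2–3 h. Twofold dilution series of the compounds and standard antibiotics are run in 96-well plates.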

K. pneumoniae ATCC 13883 = conditions: Klebsiella pneumoniae, n = 2
In short: as §1

P. aeruginosa ATCC 10145 = conditions: Pseudomonas aeruginosa, n = 2
In short: as §1

E. coli ATCC 25922 = conditions: n = 2
Experimental: A positive control of a row of just the bacteria and a negative control of only the medium were included for every plate tested.
The compounds along with standard antibiotics were serially diluted 2-fold across the 96-well plates. […] A sample of each culture was then diluted 40-fold in fresh MH broth (in presence and absence of Tween) and incubated at 37°C for 2 to 3 h.
For experiments in the presence of surfactant, 2% beractant (25 mg/ml) was added to the mid-log-phase cultures and mixed gently and added to all the 96-well plates. For experiments in the presence of serum, a mixture of 50% of human serum along with 50% MHB was prepared and used throughout the experiment.

Measured: MIC

Cc1onc(-c2ccccc2)c1C(=O)N[C@@H]1C(=O)N2[C@@H]1SC(C)(C)[C@@H]2C(=O)O [Oxacillin, oxacillin]
> 64 µg/mL: A. baumannii ATCC 19606; ATCC19606, Corning NBS, MHB +T80 | A. baumannii ATCC 19606; ATCC19606, Corning NBS, MHB -T80 | A. baumannii ATCC 19606; ATCC19606, Corning PS, MHB +T80 | A. baumannii ATCC 19606; ATCC19606, Corning PS, MHB -T80 | A. baumannii ATCC 19606; ATCC19606, Corning TC, MHB +T80 | A. baumannii ATCC 19606; ATCC19606, Corning TC, MHB -T80 | K. pneumoniae ATCC 13883; ATCC13883, Corning NBS, MHB +T80 | K. pneumoniae ATCC 13883; ATCC13883, Corning NBS, MHB -T80 | K. pneumoniae ATCC 13883; ATCC13883, Corning PS, MHB +T80 | K. pneumoniae ATCC 13883; ATCC13883, Corning PS, MHB -T80 | K. pneumoniae ATCC 13883; ATCC13883, Corning TC, MHB +T80 | K. pneumoniae ATCC 13883; ATCC13883, Corning TC, MHB -T80 | P. aeruginosa ATCC 10145; ATCC10145, Corning NBS, MHB +T80 | P. aeruginosa ATCC 10145; ATCC10145, Corning NBS, MHB -T80 | P. aeruginosa ATCC 10145; ATCC10145, Corning PS, MHB +T80 | P. aeruginosa ATCC 10145; ATCC10145, Corning PS, MHB -T80 | P. aeruginosa ATCC 10145; ATCC10145, Corning TC, MHB +T80 | P. aeruginosa ATCC 10145; ATCC10145, Corning TC, MHB -T80 | E. coli ATCC 25922; Corning NBS plate, MHB +0.002% T80, no further additive | E. coli ATCC 25922; Corning NBS plate, MHB −T80, no additive | E. coli ATCC 25922; Corning PS plate, MHB +0.002% T80, no further additive | E. coli ATCC 25922; Corning PS plate, MHB −T80, no additive | E. coli ATCC 25922; Corning TC plate, MHB +0.002% T80, no further additive | E. coli ATCC 25922; Corning TC plate, MHB −T80, no additive | E. coli ATCC 25922; Escherichia coli, ATCC25922, 24 h, Corning NBS, MH + 2% LHB, 2% LS | E. coli ATCC 25922; Escherichia coli, ATCC25922, 24 h, Corning NBS, MH + 2% LHB, 50% HS | E. coli ATCC 25922; Escherichia coli, ATCC25922, 24 h, Corning NBS, MH + 2% LHB, no additive | E. coli ATCC 25922; Escherichia coli, ATCC25922, 24 h, Corning NBS, MH + T80, 2% LS | E. coli ATCC 25922; Escherichia coli, ATCC25922, 24 h, Corning NBS, MH + T80, 50% HS | E. coli ATCC 25922; Escherichia coli, ATCC25922, 24 h, Corning PS, MH + 2% LHB, 2% LS | E. coli ATCC 25922; Escherichia coli, ATCC25922, 24 h, Corning PS, MH + 2% LHB, 50% HS | E. coli ATCC 25922; Escherichia coli, ATCC25922, 24 h, Corning PS, MH + 2% LHB, no additive | E. coli ATCC 25922; Escherichia coli, ATCC25922, 24 h, Corning PS, MH + T80, 2% LS | E. coli ATCC 25922; Escherichia coli, ATCC25922, 24 h, Corning PS, MH + T80, 50% HS | E. coli ATCC 25922; Escherichia coli, ATCC25922, 24 h, Corning TC, MH + 2% LHB, 2% LS | E. coli ATCC 25922; Escherichia coli, ATCC25922, 24 h, Corning TC, MH + 2% LHB, 50% HS | E. coli ATCC 25922; Escherichia coli, ATCC25922, 24 h, Corning TC, MH + 2% LHB, no additive | E. coli ATCC 25922; Escherichia coli, ATCC25922, 24 h, Corning TC, MH + T80, 2% LS | E. coli ATCC 25922; Escherichia coli, ATCC25922, 24 h, Corning TC, MH + T80, 50% HS | E. coli ATCC 25922; Escherichia coli, ATCC25922, 24 h, Trek PS, MH + 2% LHB, 2% LS | E. coli ATCC 25922; Escherichia coli, ATCC25922, 24 h, Trek PS, MH + 2% LHB, 50% HS | E. coli ATCC 25922; Escherichia coli, ATCC25922, 24 h, Trek PS, MH + 2% LHB, no additive | E. coli ATCC 25922; Escherichia coli, ATCC25922, 24 h, Trek PS, MH + T80, 2% LS | E. coli ATCC 25922; Escherichia coli, ATCC25922, 24 h, Trek PS, MH + T80, 50% HS | E. coli ATCC 25922; Escherichia coli, ATCC25922, Corning NBS plate, MHB +0.002% T80, no further additive | E. coli ATCC 25922; Escherichia coli, ATCC25922, Corning NBS plate, MHB −T80, no additive | E. coli ATCC 25922; Escherichia coli, ATCC25922, Corning NBS, MH, 2% LS | E. coli ATCC 25922; Escherichia coli, ATCC25922, Corning NBS, MH, 50% HS | E. coli ATCC 25922; Escherichia coli, ATCC25922, Corning PS plate, MHB +0.002% T80, no further additive | E. coli ATCC 25922; Escherichia coli, ATCC25922, Corning PS plate, MHB −T80, no additive | E. coli ATCC 25922; Escherichia coli, ATCC25922, Corning PS, MH, 2% LS | E. coli ATCC 25922; Escherichia coli, ATCC25922, Corning PS, MH, 50% HS | E. coli ATCC 25922; Escherichia coli, ATCC25922, Corning TC plate, MHB +0.002% T80, no further additive | E. coli ATCC 25922; Escherichia coli, ATCC25922, Corning TC plate, MHB −T80, no additive | E. coli ATCC 25922; Escherichia coli, ATCC25922, Corning TC, MH, 2% LS | E. coli ATCC 25922; Escherichia coli, ATCC25922, Corning TC, MH, 50% HS | E. coli ATCC 25922; Escherichia coli, ATCC25922, Nunc PS plate, MHB +0.002% T80 | E. coli ATCC 25922; Escherichia coli, ATCC25922, Nunc PS plate, MHB −T80 | E. coli ATCC 25922; Escherichia coli, ATCC25922, Nunc U TC plate, MHB +0.002% T80 | E. coli ATCC 25922; Escherichia coli, ATCC25922, Nunc U TC plate, MHB −T80 | E. coli ATCC 25922; Escherichia coli, ATCC25922, Nunc flat TC plate, MHB +0.002% T80 | E. coli ATCC 25922; Escherichia coli, ATCC25922, Nunc flat TC plate, MHB −T80 | E. coli ATCC 25922; Escherichia coli, ATCC25922, Trek PS plate, MHB +0.002% T80, no further additive | E. coli ATCC 25922; Escherichia coli, ATCC25922, Trek PS plate, MHB −T80, no additive | E. coli ATCC 25922; Escherichia coli, ATCC25922, Trek PS, MH, 2% LS | E. coli ATCC 25922; Escherichia coli, ATCC25922, Trek PS, MH, 50% HS
